Entries after “also recorded” stand apart in the source; their conditions may differ.
Experiments:
[1] = tested on: CYP enzyme activity; assay: Zoxazolamine paralysis test; conditions: for effect of pretreatment on paralysis: CAR −/− mice; for duration of zoxazolamine-induced paralysis: 3-day pretreatment, zoxazolamine 300 mg/kg i.p.; for animals that died: female CAR −/− mice after zoxazolamine; for effect of pretreatment on duration of paralysis: wild-type animals
Method: In these experiments, mice were pretreated for three days with PB or TCPOBOP, after which time they were given a single intraperitoneal injection of zoxazolamine (300 mg/kg). Paralysis time was recorded as the time when the mice were able to right themselves repeatedly.

[2] = tested on: hepatocytes; assay: Hepatocyte proliferation (BrdU incorporation); assay type: in vivo, mouse; conditions: wild-type animals
Method: FIG. 3B is a set of pictures of PB-treated, TCPOBOP-treated, or control mice that were treated with BrdU for two hours before their liver tissues were harvested.
To determine the proliferation of hepatocytes following PB or TCPOBOP treatment, mice pretreated with corn oil, PB, or TCPOBOP received a single intraperitoneal dose of BrdU/FdU (2 ml/100 g, Amersham). Mice were sacrificed approximately 2 hours after BrdU administration. BrdU incorporation was determined using a mouse anti-BrdU monoclonal antibody (DAKO Corporation) and Vectastain ABC Kit (Vector Laboratories Inc.) (FIG. 3B), using standard procedures.

[3] = tested on: wild-type and CAR knockout mice; assay: APAP toxicity after pretreatment with inducers (serum ALT, histology); assay type: in vivo, mouse; conditions: APAP 250 mg/kg; for hepatotoxicity, inducer plus APAP: CAR null mice; for liver histology after pretreatment and APAP: wild-type animals; for ALT levels and hepatic necrosis, inducer plus APAP: wild-type, 24 hours
Method: CAR (+/+) or CAR (−/−) animals pretreated with phenobarbital (PB), TCPOBOP (TC), or vehicle alone were administered a 250 mg/kg dose of APAP by intraperitoneal injection (n=5–7 per treatment group) (FIG. 11A). Serum was collected and alanine aminotransferase (ALT) levels were measured after 24 hours. Liver sections from different treatments were examined by histological staining (FIG. 11B). Liver samples from all treated animals were analyzed but only representative histology is presented. […] CAR (+/+) or CAR (−/−) animals were pretreated with PB, TCPOBOP (TC), or vehicle alone for three days (FIG. 11C). […] Liver samples treated as indicated were collected two hours after APAP and GSH levels were measured (n=5–7) (FIG. 11D).
The effect of PB and the potent CAR agonist TCPOBOP on APAP toxicity was examined in wild-type and CAR knockout mice. Both strains of mice were treated with inducers or the vehicle control, followed by 250 mg/kg APAP. For these studies, mice were kept in a pathogen-free animal facility under standard 12 hour light/12 hour dark cycle and fed standard rodent chow and water ad libitum. At least five mice between 8 and 10 weeks old were used in each treatment group. For 3-day PB (100 mg/kg) treatment, mice were injected intraperitoneally three times, one injection per day. TCPOBOP (3 mg/kg) and/or APAP were injected intraperitoneally. Phenobarbital and TCPOBOP were suspended or dissolved in corn oil, and APAP was dissolved in basic PBS (pH=11). PB and APAP were purchased from Sigma (St Louis, Mo.); TCPOBOP was a gift from Dr. Stephen Safe.
For histologic examination of the treated mice, the left lobe of the livers was removed and immediately fixed in 4% formaldehyde-PBS solution, embedded in paraffin, sectioned at 5 μm, and stained with hematoxylin and eosin. Samples were examined under a light microscope. For RNA studies, total RNA was extracted using TRIzol Reagent (Invitrogen Life Technologies, Carlsbad, Calif.) according to the manufacture's instruction. Equivalent amount of RNA from 3–5 mice were pooled and 10 μg of each sample was subjected to northern blot analysis. […] Preparation of probes for CYP2B10 and CYP3A11 were described as previously (Wei et al., Nature 407:920–923, 2000 and Zelko et al., Mol Cell Biol 21:2838–2846, 2001). PCR primers used were: CYP1A2: 5′-[…]-3′ (SEQ ID NO: 19) and 5′-[…]-3′ (SEQ ID NO: 20), CYP2E1: 5′-[…]-3′ (SEQ ID NO: 21) and 5′-[…]-3′ (SEQ ID NO: 22), GSTPi: 5′-[…]-3′ (SEQ ID NO: 23) and 5′-[…]-3′ (SEQ ID NO: 24). Hepatic non-protein thiol was measured as an indication of hepatic GSH content. Mice were sacrificed two hours after intraperitoneal injection with APAP. Livers were removed and immediately homogenized in four volumes of 5% trichloroacetic acid and then centrifuged at 1,600×g for 15 minutes. Supernatant (0.5 ml) was mixed with 1.5 ml 0.1 mM Ellman's reagent [5,5′-dithio-bis(2-nitrobenzoic acid)] (Sigma, St Louis, Mo.) and allowed to stand at room temperature for 15 minutes. Absorbance was read at 412 nm using GSH solutions as quantitative standards.

[4] = molecular target: T1, murine CAR (Mus musculus, UniProt O35627); conditions: mice expressing only murine CAR (heterozygous, no transgene), 24 hours
T1 sequence (O35627 1-358): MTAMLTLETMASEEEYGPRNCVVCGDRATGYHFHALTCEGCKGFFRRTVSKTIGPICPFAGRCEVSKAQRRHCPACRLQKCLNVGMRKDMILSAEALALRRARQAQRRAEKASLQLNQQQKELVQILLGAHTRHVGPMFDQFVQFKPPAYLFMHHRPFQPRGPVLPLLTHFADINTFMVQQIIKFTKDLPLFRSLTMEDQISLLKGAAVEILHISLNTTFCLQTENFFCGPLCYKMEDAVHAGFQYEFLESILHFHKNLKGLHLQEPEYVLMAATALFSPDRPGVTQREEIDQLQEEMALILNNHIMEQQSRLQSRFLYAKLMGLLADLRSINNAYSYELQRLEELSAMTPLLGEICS
Method: (§1) Total RNA was prepared from the livers of the individual mice, and CYP2B10 mRNA expression was assessed by Northern blotting.
(§2) Mice heterozygous for the murine CAR gene mutation and lacking the human CAR transgene express only murine CAR. […] Mice homozygous for the murine CAR gene mutation and carrying the human CAR transgene express only human CAR in the liver.

[5] = tested on: murine CAR; conditions: no functional CAR (homozygous mutation, no transgene), 24 hours
Method: as §1, §2

[6] = molecular target: T2, human CAR (Homo sapiens, UniProt Q14994); assay: CYP2B10 mRNA induction in humanized CAR mice lacking murine CAR; conditions: mice expressing only human CAR in liver, 24 hours
T2 sequence (Q14994 1-348 isoform Q14994-2): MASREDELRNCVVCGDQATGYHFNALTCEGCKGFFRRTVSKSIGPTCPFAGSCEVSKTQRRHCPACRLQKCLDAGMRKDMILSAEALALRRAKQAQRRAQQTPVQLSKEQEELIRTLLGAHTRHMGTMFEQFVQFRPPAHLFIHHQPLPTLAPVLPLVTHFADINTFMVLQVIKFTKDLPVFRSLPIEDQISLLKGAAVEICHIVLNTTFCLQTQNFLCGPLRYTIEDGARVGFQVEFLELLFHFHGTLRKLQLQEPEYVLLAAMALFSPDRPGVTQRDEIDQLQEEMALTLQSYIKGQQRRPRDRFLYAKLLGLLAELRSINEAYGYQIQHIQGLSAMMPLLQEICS
Method: as §1, §2

[7] = tested on: CYP2B10; assay: Northern blot of CYP2B10 mRNA in liver of wild-type and CAR knockout mice
Method: At least three mice between about 8–10 weeks old were used for each treatment. Mice were pretreated by intraperitoneal injection with corn oil, PB (100 mg/kg, Sigma), or TCBOPOP (3 mg/kg) for the indicated time. For a three day PB treatment, mice were injected intraperitoneally three times with PB, at one injection per day.
Approximately 20 μg of total RNA from individual mouse livers was subjected to Northern blot analysis (FIG. 1C). A mouse CAR cDNA probe was used to reveal the absence of CAR transcripts in the CAR null mice. Probes for CYP2B10 were prepared by RT-PCR with mouse liver total RNA using Superscript One-step RT-PCR System (Life Technologies).

Structure (SMILES) | effect of pretreatment on paralysis [1] | duration of zoxazolamine-induced paralysis ([1]; female CAR (+/+) mice) | duration of zoxazolamine-induced paralysis ([1]; female CAR (−/−) mice) | animals that died [1] | duration of zoxazolamine-induced paralysis ([1]; male CAR (+/+) mice) | duration of zoxazolamine-induced paralysis ([1]; male CAR (−/−) mice) | effect of pretreatment on duration of paralysis [1] | BrdU-positive hepatocytes [2] | hepatotoxicity, inducer plus APAP [3] | liver histology after pretreatment and APAP [3] | ALT levels and hepatic necrosis, inducer plus APAP [3] | induction of CYP2B10 mRNA [4] | induction of CYP2B10 mRNA [5] | induction of CYP2B10 mRNA [6] | induction of expression of CYP2B10 mRNA ([7]; CAR knockout animals) | induction of expression of CYP2B10 mRNA ([7]; wild-type male or female mice)
CCC1(c2ccccc2)C(=O)NC(=O)NC1=O [PB, phenobarbital] | not affected | not paralyzed | died | two animals from each group | <20 min | >300 min | significantly decreased the duration of paralysis | presence of BrdU-positive hepatocytes | no such hepatotoxicity | extensive hepatic centrilobular necrosis | strongly elevated ALT levels and hepatic necrosis | induction of CYP2B10 mRNA | no response | induction of CYP2B10 mRNA; also recorded: induces a CAR target gene | absent | robust induction
Clc1cnc(Oc2ccc(Oc3ncc(Cl)cc3Cl)cc2)c(Cl)c1 [TCPOBOP, 1,4-bis[2-(3,5-dichloropyridyloxy)]benzene] | not affected | not paralyzed | died | two animals from each group | <20 min | >300 min | significantly decreased the duration of paralysis | presence of BrdU-positive hepatocytes | no such hepatotoxicity | extensive hepatic centrilobular necrosis | strongly elevated ALT levels and hepatic necrosis | induction of CYP2B10 mRNA | no response | did not respond; also recorded: not by TCPOBOP | absent | robust induction

— patent US7186879B2, “Screening systems and methods for identifying modulators of xenobiotic metabolism” (Baylor College of Medicine, priority 2001, dated 2007)
